Literature values in patent US20220160704A2, “COMPOSITIONS FOR OPIATE AND OPIOID PREVENTION AND REVERSAL, AND METHODS OF THEIR USE” (Torralva Medical Therapeutics LLC, priority 2018, published 2022).
Where a name gives a salt, the structure may show the parent alone. Read-outs that look alike come from different tables or passages of the source.

Tests used:
[1] = cited from earlier work
[2] = pH 7.4; cited from earlier work
α-1 1A subtype = biological target: T1, α-1 1A subtype (Homo sapiens, UniProt P35348); conditions: greater than Prazosin; cited from earlier work
T1 sequence (P35348 1-466): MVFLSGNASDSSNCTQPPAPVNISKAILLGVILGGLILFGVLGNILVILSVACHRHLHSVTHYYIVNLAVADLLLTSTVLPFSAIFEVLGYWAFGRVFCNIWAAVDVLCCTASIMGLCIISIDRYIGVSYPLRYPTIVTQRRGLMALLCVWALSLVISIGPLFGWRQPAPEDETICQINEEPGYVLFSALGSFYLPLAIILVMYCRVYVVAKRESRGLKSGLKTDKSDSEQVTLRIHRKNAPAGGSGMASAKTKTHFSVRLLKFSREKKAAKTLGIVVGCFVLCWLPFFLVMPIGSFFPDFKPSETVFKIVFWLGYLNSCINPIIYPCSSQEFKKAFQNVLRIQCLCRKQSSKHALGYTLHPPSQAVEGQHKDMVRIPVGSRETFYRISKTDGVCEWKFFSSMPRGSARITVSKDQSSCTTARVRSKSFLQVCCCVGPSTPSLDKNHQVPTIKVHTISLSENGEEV

[3] = cited from earlier work; remark: listed apart in the source
[4] = cited from earlier work; remark: listed apart in the source
[5] = in vivo; cited from earlier work
[6] = cited from earlier work; remark: listed apart in the source
[7] = cited from earlier work; remark: listed apart in the source
[8] = cited from earlier work; remark: listed apart in the source
[9] = 25° C.; cited from earlier work
[10] = subcutaneous injection of 10 mg; cited from earlier work

CCOC(=O)c1ncn2c1CN(C)C(=O)c1cc(F)ccc1-2 [Flumazenil, ethyl 8-fluoro-5,6-dihydro-5-methyl-6-oxo-4H-imidazo[1,5-a](1,4) benzodiazepine-3-carboxylate]
Solubility in acidic aqueous solutions ([1]; acidic aqueous solutions): slightly soluble
Solubility in water [1]: insoluble
octanol: buffer partition coefficient [2]: 14 to 1

CCOc1ccccc1OCCN[C@H](C)Cc1ccc(OC)c(S(N)(=O)=O)c1.Cl [Tamsulosin hydrochloride, (−)-(R)-5-[2-[[2-(o-Ethoxyphenoxy)ethyl]amino]propyl]-2-methoxybenzenesulfon-amide, monohydrochloride]
Binding affinity at the 1A subtype over other α-1 antagonists (α-1 1A subtype): 12-30 times
Incidence of hypotension, syncope, vertigo ([3]; Dose 0.4-0.8 mg QD): 0.2%-0.6%
Half-life (in words) ([4]; in vivo): long half-life
Crossing of the blood brain barrier [5]: ability to cross the blood brain barrier

CNC(C)C(O)c1ccccc1 (stereo not drawn) [Ephedrine, benzenemethanol α-[1-(methylamino)ethyl]-sulfate (2:1) (salt)]
Light stability ([6]; exposure to light): darkens on exposure to light

C=CC[N+]1([C@H]2C[C@H]3[C@@H]4CC[C@H]5C[C@H](O)[C@@H](N6CCOCC6)C[C@]5(C)[C@H]4CC[C@]3(C)[C@H]2OC(C)=O)CCCC1.[Br-] [rocuronium bromide, 1-[17β-(acetyloxy)-3α-hydroxy-2β-(4-morpholinyl)-5α-androstan-16β-yl]-1-(2-propenyl)pyrroidinium bromide]
Time in which most patients have intubation completed ([7]; initial dose 0.6 mg/kg): ≤ 2 min
Time to maximum blockade in most patients ([7]; initial dose 0.6 mg/kg): less than 3 minutes
Time to neuromuscular block sufficient for intubation (80% block or greater), median (range) ([7]; initial dose 0.6 mg/kg): 1 (0.4-6) minute(s)

C[N+](C)(C)CCOC(=O)CCC(=O)OCC[N+](C)(C)C [Succinylcholine]
Persistence of maximum blockade ([7]; 0.3-1.1 mg/kg): about 2 minutes
Time to recovery after maximum blockade ([7]; 0.3-1.1 mg/kg): 4 to 6 min
Time until neuromuscular blockade develops ([7]; 0.3-1.1 mg/kg): about 1 minute
Onset of effect given intramuscularly ([7]; intramuscular, up to 3 to 4 mg/kg): 2 to 3 min
Storage stability of solutions ([6]; refrigeration): lose potency unless refrigerated
Bradycardia ([8]; human, in vivo): bradycardia is common in pediatric patients after an initial dose of 1.5 mg/kg

CN1CCC[C@H]1c1cccnc1 [Nicotine]
Miscibility with water ([1]; base form): miscible with water in its base form between 60 °C and 210 °C
Vapor pressure [9]: 5.5 Pa
Time to reach the brain ([4]; after inhalation): 10 to 20 s
Route of excretion ([4]; in vivo): primarily excreted in urine
Crossing of the blood brain barrier [5]: crosses the blood-brain barrier

C[C@H](Cc1cc2c(c(C(N)=O)c1)N(CCCO)CC2)NCCOc1ccccc1OCC(F)(F)F [SILODOSIN]
Solubility in ethanol / alcohol [1]: freely soluble
Solubility in acetic acid ([1]; glacial acetic acid / acetic acid): very soluble
Solubility in water [1]: very slightly soluble
Dizziness and orthostatic hypotension ([3]; 8 mg QD, study of 897 subjects): 3%
Syncope, subjects affected / subjects ([3]; 8 mg QD, study of 897 subjects): 1/897

COc1cc2nc(N3CCN(C(=O)C4COc5ccccc5O4)CC3)nc(N)c2cc1OC (centres unmarked) [DOXAZOSIN, 1-(4-amino-6,7-dimethoxy-2-quinazolinyl)-4-(1,4benzodioxan-2-ylcarbonyl) piperazine methanesulfonate]
Solubility in acetone ([1]; acetone): very slightly soluble
Solubility in dichloromethane / methylene chloride [1]: very slightly soluble
Solubility in dimethylformamide ([1]; dimethylformamide): soluble
Solubility in dimethylsulfoxide ([1]; dimethylsulfoxide): freely soluble
Solubility in ethanol / alcohol [1]: slightly soluble
Solubility in methanol ([1]; methanol): slightly soluble
Solubility in water ([1]; 25° C.): 0.8%
Solubility in water [1]: slightly soluble
Half-life (in words) ([4]; in vivo): long half-life

COc1cc2nc(N3CCN(C(=O)C4CCCO4)CC3)nc(N)c2cc1OC (racemic) [TERAZOSIN, (RS)-Piperazine, 1-(4-amino-6,7-dimethoxy-2-quinazolinyl)-4-[(tetra-hydro-2-furanyl)carbonyl]-, monohydrochloride, dihydrate]
Solubility in isotonic saline [1]: freely soluble
Solubility in water [1]: freely soluble
Postural hypotension ([3]; trial of 600 subjects): 4%
Syncope ([3]; trial subjects): 0.6%
Half-life (in words) ([4]; in vivo): long half-life

COc1cc2nc(N3CCN(C(=O)c4ccco4)CC3)nc(N)c2cc1OC.Cl [PRAZOSIN, 1-(4-amino-6,7-dimethoxy-2-quiazolinyl)-4-(2-furoyl) piperazine]
Solubility in isotonic saline [1]: slightly soluble
Solubility in water [1]: slightly soluble
Syncope and symptoms of hypotension, share of subjects ([3]; 1 mg BID/TID up to 20 mg total QD): 6-12%
Crossing of the blood brain barrier [5]: ability to cross the blood brain barrier

Cl.Clc1cccc(Cl)c1NC1=NCCN1 [Clondine hydrochloride, 2-(2,6-dichlorophenylamino)-2-imidazoline hydrochloride]
Maximum effective daily dose ([8]; oral): 2.4 mg

O=C1CC[C@@]2(O)[C@H]3Cc4ccc(O)c5c4[C@@]2(CCN3CC2CC2)[C@H]1O5 [Naltrexone base anhydrous, morphinan-6-one, 17 (cyclopropylmethyl) 4,5-epoxy3,14-dihydroxy-(5a)]
Solubility in ethanol / alcohol [1]: soluble
Solubility in water [1]: insoluble

CC[C@@H]1C(=O)OC[C@@H]1Cc1cncn1C [pilocarpine HCl]
Salivation [10]: 1 L

C=CCN1CC[C@]23c4c5ccc(O)c4O[C@H]2C(=O)CC[C@@]3(O)[C@H]1C5.Cl [Naloxone hydrochloride, 17-Allyl-4,5α-epoxy-3,14-dihydroxymorphinan-6-one hydrochloride]
Solubility in chloroform ([1]; chloroform): practically insoluble
Solubility in dilute acids ([1]; dilute acids): soluble
Solubility in ethanol / alcohol [1]: slightly soluble
Solubility in ether ([1]; ether / ethyl ether): practically insoluble
Solubility in strong alkali ([1]; strong alkali): soluble
Solubility in water [1]: soluble

COc1cc2nc(N(C)CCCNC(=O)C3CCCO3)nc(N)c2cc1OC.Cl (racemic) [ALFUZOSIN, (R,S)—N-[3-[(4-amino-6,7-dimethoxy-2-quinazolinyl)methylamino]propyl]tetrahydro-2-furancarboxamide hydrochloride]
Solubility in dichloromethane / methylene chloride [1]: practically insoluble
Solubility in ethanol / alcohol [1]: sparingly soluble
Solubility in water [1]: freely soluble
Dizziness ([3]; human, in vivo): 6%
Hypotension ([3]; human, in vivo): 0.4%
Syncope ([3]; human, in vivo): 0.2%

1 H,5 H-Tropan-3-ol (±)-tropate [Atropine]
Dose that can produce a paradoxical bradycardia ([8]; adults): less than 0.5 mg
